# Assay results published in ChEMBL document CHEMBL5058564, “EUbOPEN Chemogenomics Library 2 (Incucyte)” (2022).
# Key:
# Assay type in all cases: toxicity, cell-based
# HEK-293T = experiment: Incucyte cell viability with HEK293T; conditions: human, 10 µM, compound concentration 10 uM
# Fibroblast = experiment: Incucyte cell viability with human fibroblast; conditions: 10 µM, compound concentration 10 uM
# U2OS = experiment: Incucyte cell viability with U2OS; conditions: human, 10 µM, compound concentration 10 uM
# [1] = 0 h, replicate number 2, timepoint 0 hours
# [2] = 6 h, replicate number 1, timepoint 6 hours
# [3] = 6 h, replicate number 2, timepoint 6 hours
# [4] = 12 h, replicate number 1, timepoint 12 hours
# [5] = 12 h, replicate number 2, timepoint 12 hours
# [6] = 18 h, replicate number 1, timepoint 18 hours
# [7] = 18 h, replicate number 2, timepoint 18 hours
# [8] = 24 h, replicate number 1, timepoint 24 hours
# [9] = 24 h, replicate number 2, timepoint 24 hours
# [10] = 0 h, replicate number 1, timepoint 0 hours
# Also: unitless GR value; below 1 slowed growth and below 0 cell loss.
structure (smiles),measurement,setting,value
COc1ccc(NC(=O)c2ccc(-c3ccc(-c4noc(C)n4)cc3C)cc2)cc1OCCN(C)C.Cl,Growth Rate,HEK-293T; [1],-0.89
same,Growth Rate,HEK-293T; [2],-0.88
same,Growth Rate,HEK-293T; [3],-0.73
same,Growth Rate,HEK-293T; [4],-0.65
same,Growth Rate,HEK-293T; [5],-0.38
same,Growth Rate,HEK-293T; [6],-0.53
same,Growth Rate,HEK-293T; [7],-0.31
same,Growth Rate,HEK-293T; [8],-0.45
same,Growth Rate,HEK-293T; [9],-0.35
same,Growth Rate,Fibroblast; [2],-0.36
same,Growth Rate,Fibroblast; [3],-0.28
same,Growth Rate,Fibroblast; [4],-0.41
same,Growth Rate,Fibroblast; [5],-0.33
same,Growth Rate,Fibroblast; [6],-0.47
same,Growth Rate,Fibroblast; [7],-0.48
same,Growth Rate,Fibroblast; [8],-0.57
same,Growth Rate,Fibroblast; [9],-0.52
same,Growth Rate,U2OS; [10],-0.87
same,Growth Rate,U2OS; [1],-1
same,Growth Rate,U2OS; [2],-0.71
same,Growth Rate,U2OS; [4],-0.36
same,Growth Rate,U2OS; [5],0.51
same,Growth Rate,U2OS; [6],-0.17
same,Growth Rate,U2OS; [7],0.28
same,Growth Rate,U2OS; [8],-0.18
same,Growth Rate,U2OS; [9],0.14
O=C(O)CCC/C=C\CC1C(O)CC(O)C1/C=C/C(O)COc1cccc(Cl)c1 (configuration not stated) [CLOPROSTENOL],Growth Rate,HEK-293T; [1],0.63
same,Growth Rate,HEK-293T; [2],0.34
same,Growth Rate,HEK-293T; [3],0.93
same,Growth Rate,HEK-293T; [4],0.74
same,Growth Rate,HEK-293T; [6],0.75
same,Growth Rate,HEK-293T; [7],0.99
same,Growth Rate,HEK-293T; [8],0.95
same,Growth Rate,Fibroblast; [1],0.34
same,Growth Rate,Fibroblast; [2],-0.06
same,Growth Rate,Fibroblast; [4],0.25
same,Growth Rate,Fibroblast; [6],0.2
same,Growth Rate,Fibroblast; [8],0.18
same,Growth Rate,U2OS; [10],-0.27
same,Growth Rate,U2OS; [1],-0.99
same,Growth Rate,U2OS; [3],0.74
same,Growth Rate,U2OS; [6],0.7
Cc1c(C(=O)NN2CCCCC2)nn(-c2ccc(Cl)cc2Cl)c1-c1ccc(Cl)cc1 [RIMONABANT],Growth Rate,HEK-293T; [10],0.19
same,Growth Rate,HEK-293T; [1],-0.01
same,Growth Rate,Fibroblast; [1],0.97
same,Growth Rate,Fibroblast; [2],-0.42
same,Growth Rate,Fibroblast; [3],-0.46
same,Growth Rate,Fibroblast; [4],0.04
same,Growth Rate,Fibroblast; [5],0
same,Growth Rate,Fibroblast; [6],-0.03
same,Growth Rate,Fibroblast; [7],0.53
same,Growth Rate,Fibroblast; [8],0.03
same,Growth Rate,Fibroblast; [9],0.42
same,Growth Rate,U2OS; [10],0.12
same,Growth Rate,U2OS; [1],-1
same,Growth Rate,U2OS; [7],0.98
same,Growth Rate,U2OS; [8],0.8
NC[C@H](O)c1ccc(O)c(O)c1.O.O=C(O)C(O)C(O)C(=O)O,Growth Rate,HEK-293T; [1],0.69
same,Growth Rate,HEK-293T; [2],0.63
same,Growth Rate,HEK-293T; [4],0.75
same,Growth Rate,HEK-293T; [6],0.76
same,Growth Rate,HEK-293T; [7],0.8
same,Growth Rate,HEK-293T; [8],0.86
same,Growth Rate,Fibroblast; [10],0.92
same,Growth Rate,Fibroblast; [1],0.62
same,Growth Rate,Fibroblast; [2],0.19
same,Growth Rate,Fibroblast; [4],0.79
same,Growth Rate,Fibroblast; [6],0.97
same,Growth Rate,Fibroblast; [8],0.77
same,Growth Rate,U2OS; [1],0.46
same,Growth Rate,U2OS; [3],0.72
same,Growth Rate,U2OS; [5],0.93
same,Growth Rate,U2OS; [7],0.98
C[N+]1(C)[C@@H]2C[C@@H](OC(=O)C(O)(c3cccs3)c3cccs3)C[C@H]1[C@@H]1O[C@@H]12.O.[Br-] [TIOTROPIUM BROMIDE],Growth Rate,HEK-293T; [10],0.54
same,Growth Rate,HEK-293T; [1],-0.14
same,Growth Rate,HEK-293T; [2],0.86
same,Growth Rate,HEK-293T; [4],0.87
same,Growth Rate,HEK-293T; [6],0.7
same,Growth Rate,HEK-293T; [7],0.99
same,Growth Rate,HEK-293T; [8],0.79
same,Growth Rate,HEK-293T; [9],0.91
same,Growth Rate,Fibroblast; [1],-0.05
same,Growth Rate,Fibroblast; [2],-0.47
same,Growth Rate,Fibroblast; [4],0.71
same,Growth Rate,Fibroblast; [5],0.99
same,Growth Rate,Fibroblast; [6],1
same,Growth Rate,Fibroblast; [7],0.83
same,Growth Rate,Fibroblast; [8],0.95
same,Growth Rate,Fibroblast; [9],0.7
same,Growth Rate,U2OS; [10],0.04
same,Growth Rate,U2OS; [1],0.9
same,Growth Rate,U2OS; [2],0.61
same,Growth Rate,U2OS; [3],0.93
same,Growth Rate,U2OS; [4],0.64
same,Growth Rate,U2OS; [6],0.68
same,Growth Rate,U2OS; [8],0.86
C[C@@H](O[C@H]1OCCN(Cc2n[nH]c(=O)[nH]2)[C@H]1c1ccc(F)cc1)c1cc(C(F)(F)F)cc(C(F)(F)F)c1 [APREPITANT],Growth Rate,HEK-293T; [2],0.91
same,Growth Rate,HEK-293T; [3],0.66
same,Growth Rate,HEK-293T; [4],0.57
same,Growth Rate,HEK-293T; [5],0.97
same,Growth Rate,HEK-293T; [6],0.77
same,Growth Rate,HEK-293T; [7],0.84
same,Growth Rate,HEK-293T; [8],0.74
same,Growth Rate,Fibroblast; [2],0.71
same,Growth Rate,Fibroblast; [3],-0.37
same,Growth Rate,Fibroblast; [4],0.39
same,Growth Rate,Fibroblast; [5],-0.12
same,Growth Rate,Fibroblast; [6],0.18
same,Growth Rate,Fibroblast; [7],0.17
same,Growth Rate,Fibroblast; [8],0.28
same,Growth Rate,Fibroblast; [9],0.5
same,Growth Rate,U2OS; [10],-0.52
same,Growth Rate,U2OS; [1],-1
same,Growth Rate,U2OS; [2],0.29
same,Growth Rate,U2OS; [3],0.58
same,Growth Rate,U2OS; [5],0.65
same,Growth Rate,U2OS; [6],0.9
same,Growth Rate,U2OS; [7],0.69
same,Growth Rate,U2OS; [9],0.79
COC(=O)[C@H]1[C@H]2C[C@H]3c4[nH]c5ccccc5c4CCN3C[C@H]2CC[C@@H]1O.Cl [RAUWOLSCINE HYDROCHLORIDE],Growth Rate,HEK-293T; [10],0.51
same,Growth Rate,HEK-293T; [1],0.67
same,Growth Rate,HEK-293T; [2],0.76
same,Growth Rate,HEK-293T; [4],0.95
same,Growth Rate,Fibroblast; [1],-0.08
same,Growth Rate,Fibroblast; [2],0.83
same,Growth Rate,Fibroblast; [4],0.59
same,Growth Rate,U2OS; [10],-0.57
same,Growth Rate,U2OS; [2],0.53
same,Growth Rate,U2OS; [4],0.61
same,Growth Rate,U2OS; [5],0.89
same,Growth Rate,U2OS; [6],0.79
same,Growth Rate,U2OS; [7],0.88
same,Growth Rate,U2OS; [9],0.98
CN(c1ncccc1CNc1ccnc(-c2nc3c(F)c(Cl)ccc3[nH]2)n1)S(C)(=O)=O,Growth Rate,HEK-293T; [10],-0.02
same,Growth Rate,HEK-293T; [1],0.48
same,Growth Rate,HEK-293T; [2],0.84
same,Growth Rate,HEK-293T; [4],0.97
same,Growth Rate,HEK-293T; [5],0.72
same,Growth Rate,HEK-293T; [6],0.93
same,Growth Rate,HEK-293T; [7],0.99
same,Growth Rate,HEK-293T; [9],0.81
same,Growth Rate,Fibroblast; [1],0.75
same,Growth Rate,Fibroblast; [2],-0.47
same,Growth Rate,Fibroblast; [4],0.38
same,Growth Rate,Fibroblast; [6],0.27
same,Growth Rate,Fibroblast; [8],0.36
same,Growth Rate,Fibroblast; [9],0.92
same,Growth Rate,U2OS; [10],-0.62
same,Growth Rate,U2OS; [1],-0.69
same,Growth Rate,U2OS; [2],0.1
same,Growth Rate,U2OS; [3],0.61
same,Growth Rate,U2OS; [4],0.15
same,Growth Rate,U2OS; [5],0.66
same,Growth Rate,U2OS; [6],0.62
same,Growth Rate,U2OS; [7],0.87
same,Growth Rate,U2OS; [8],0.78
same,Growth Rate,U2OS; [9],0.72
O=c1ccn([C@@H]2O[C@H](COP(=O)([O-])OP(=O)([O-])OP(=O)([O-])OP(=O)([O-])OC[C@H]3O[C@@H](n4ccc(=O)[nH]c4=O)[C@H](O)[C@@H]3O)[C@@H](O)[C@H]2O)c(=O)[nH]1.[Na+].[Na+].[Na+].[Na+] [DIQUAFOSOL TETRASODIUM],Growth Rate,HEK-293T; [10],0.43
same,Growth Rate,HEK-293T; [1],0.4
same,Growth Rate,HEK-293T; [2],0.69
same,Growth Rate,HEK-293T; [3],0.63
same,Growth Rate,HEK-293T; [4],0.73
same,Growth Rate,HEK-293T; [6],0.72
same,Growth Rate,HEK-293T; [8],0.85
same,Growth Rate,HEK-293T; [9],0.81
same,Growth Rate,Fibroblast; [10],0.39
same,Growth Rate,Fibroblast; [3],0.61
same,Growth Rate,Fibroblast; [8],0.89
same,Growth Rate,U2OS; [10],-0.05
same,Growth Rate,U2OS; [2],0.17
same,Growth Rate,U2OS; [4],0.47
same,Growth Rate,U2OS; [6],0.88
same,Growth Rate,U2OS; [7],0.92
same,Growth Rate,U2OS; [8],0.93
CCNC1(C(N)=O)CCN(c2ncnc3c2nc(-c2ccccc2Cl)n3-c2ccc(Cl)cc2)CC1 [OTENABANT],Growth Rate,HEK-293T; [5],0.81
same,Growth Rate,Fibroblast; [10],-0.61
same,Growth Rate,Fibroblast; [1],0.22
same,Growth Rate,Fibroblast; [3],0.96
same,Growth Rate,Fibroblast; [4],-0.34
same,Growth Rate,Fibroblast; [5],1
same,Growth Rate,Fibroblast; [6],0.38
same,Growth Rate,Fibroblast; [8],-0.07
same,Growth Rate,U2OS; [10],-0.85
same,Growth Rate,U2OS; [3],0.79
same,Growth Rate,U2OS; [5],0.93
same,Growth Rate,U2OS; [7],0.92
same,Growth Rate,U2OS; [9],0.93
O=C(O)CCCCCC[C@H]1C(=O)NC(=O)N1CCC(O)C1CCCCC1 (some centres not stated),Growth Rate,HEK-293T; [1],0.31
same,Growth Rate,HEK-293T; [2],0.84
same,Growth Rate,HEK-293T; [3],0.93
same,Growth Rate,HEK-293T; [4],0.73
same,Growth Rate,HEK-293T; [5],0.68
same,Growth Rate,HEK-293T; [6],0.88
same,Growth Rate,HEK-293T; [7],0.81
same,Growth Rate,HEK-293T; [8],0.91
same,Growth Rate,Fibroblast; [10],0.25
same,Growth Rate,Fibroblast; [1],0.26
same,Growth Rate,Fibroblast; [5],0.91
same,Growth Rate,U2OS; [10],-0.44
same,Growth Rate,U2OS; [2],0.65
same,Growth Rate,U2OS; [6],0.81
O=C(O)CCc1ccc(NCc2cccc(Oc3ccccc3)c2)cc1 [GW9508],Growth Rate,HEK-293T; [1],0.79
same,Growth Rate,HEK-293T; [8],0.98
same,Growth Rate,Fibroblast; [10],-0.2
same,Growth Rate,Fibroblast; [1],0.43
same,Growth Rate,Fibroblast; [4],1
same,Growth Rate,U2OS; [1],0.8
same,Growth Rate,U2OS; [3],0.91
same,Growth Rate,U2OS; [4],1
same,Growth Rate,U2OS; [7],0.97
O=C(NCC(=O)N1CC[C@H](N[C@H]2CC[C@@](O)(c3ccc(-c4ncccn4)cn3)CC2)C1)c1cccc(C(F)(F)F)c1 [PF-4136309],Growth Rate,HEK-293T; [1],0.66
same,Growth Rate,HEK-293T; [2],1
same,Growth Rate,HEK-293T; [3],0.86
same,Growth Rate,HEK-293T; [4],0.73
same,Growth Rate,HEK-293T; [8],0.99
same,Growth Rate,Fibroblast; [1],0.71
same,Growth Rate,Fibroblast; [2],0.01
same,Growth Rate,Fibroblast; [4],0.15
same,Growth Rate,Fibroblast; [6],0.3
same,Growth Rate,Fibroblast; [8],0.41
same,Growth Rate,U2OS; [10],0.62
same,Growth Rate,U2OS; [3],0.3
same,Growth Rate,U2OS; [5],0.53
same,Growth Rate,U2OS; [6],1
same,Growth Rate,U2OS; [7],0.8
same,Growth Rate,U2OS; [8],0.7
same,Growth Rate,U2OS; [9],0.9
